{
  "source": "paper PMC3175016",
  "about": "(Journal of applied toxicology : JAT, 2011)",
  "type_in_all_cases": "in vivo",
  "key": {"male Fischer 344 rats [1]": {"test_system": "male Fischer 344 rats", "assay": "Serum alanine aminotransferase", "conditions": "24 h; for Change in serum ALT levels: vs corn oil"}, "male Fischer 344 rats [2]": {"test_system": "male Fischer 344 rats", "assay": "Blood urea nitrogen", "conditions": "i.p. in corn oil, 24 h, mean ± SE, N = 3–4"}, "male Fischer 344 rats [3]": {"test_system": "male Fischer 344 rats", "assay": "Urine volume after a single i.p. dose", "conditions": "for Twenty-four-hour urine volume: i.p. in corn oil, mean ± SE, N = 3–4"}, "male Fischer 344 rats [4]": {"test_system": "male Fischer 344 rats", "assay": "Six-hour urine protein content after a single i.p. dose", "conditions": "i.p. in corn oil, mean ± SE, N = 3–4"}, "male Fischer 344 rats [5]": {"test_system": "male Fischer 344 rats", "assay": "Liver weight 24 h after a single i.p. dose", "conditions": "i.p. in corn oil, mean ± SE, N = 3–4"}, "male Fischer 344 rats [6]": {"test_system": "male Fischer 344 rats", "assay": "Kidney weight 24 h after a single i.p. dose", "conditions": "i.p. in corn oil, mean ± SE, N = 3–4"}, "male Fischer 344 rats [7]": {"test_system": "male Fischer 344 rats", "assay": "Liver histology", "conditions": "24 h"}, "male Fischer 344 rats [8]": {"test_system": "male Fischer 344 rats", "assay": "Kidney histology", "conditions": "all doses evaluated, i.p., 24 h, vs corn oil"}, "[9]": {"conditions": "dose 0.2 (head mg/kg; text mmol/kg)"}, "[10]": {"conditions": "dose 0.4 (head mg/kg; text mmol/kg)"}, "[11]": {"conditions": "dose 0.6 (head mg/kg; text mmol/kg)"}, "[12]": {"conditions": "dose 1.0 (head mg/kg; text mmol/kg)"}},
  "note": "Marks after values point to notes of the source that are not given here.",
  "data": [
    {"smiles": "O=C1CSCN1c1cc(Cl)cc(Cl)c1", "note": "[4-DCTD, 3-(3,5-dichlorophenyl)-4-thiazolidinone]", "values": [
      {"measurement": "Change in serum ALT levels", "setting": "male Fischer 344 rats [1]; all four doses (0.2, 0.4, 0.6, 1.0 mmol/kg) i.p.", "result": "did not exhibit any significant changes in serum ALT levels"},
      {"measurement": "Blood urea nitrogen", "setting": "male Fischer 344 rats [2]; [9]", "result": "26.8 ± 1.5^d mg/dl"},
      {"measurement": "Blood urea nitrogen", "setting": "male Fischer 344 rats [2]; [10]", "result": "25.6 ± 1.9^d mg/dl"},
      {"measurement": "Blood urea nitrogen", "setting": "male Fischer 344 rats [2]; [11]", "result": "33.8 ± 2.4*,^e mg/dl"},
      {"measurement": "Blood urea nitrogen", "setting": "male Fischer 344 rats [2]; [12]", "result": "42.5 ± 1.1*,^f mg/dl"},
      {"measurement": "Diuresis / increase in urine volume", "setting": "male Fischer 344 rats [3]; all doses, compared to controls, not dose-dependent", "result": "approximately three and a half-fold increase"},
      {"measurement": "Twenty-four-hour urine volume", "setting": "male Fischer 344 rats [3]; [9]", "result": "12.3 ± 1.7*,^c ml"},
      {"measurement": "Twenty-four-hour urine volume", "setting": "male Fischer 344 rats [3]; [10]", "result": "11.3 ± 2.2*,^c ml"},
      {"measurement": "Twenty-four-hour urine volume", "setting": "male Fischer 344 rats [3]; [11]", "result": "9.1 ± 1.6*,^c ml"},
      {"measurement": "Twenty-four-hour urine volume", "setting": "male Fischer 344 rats [3]; [12]", "result": "12.3 ± 1.0*,^c ml"},
      {"measurement": "Six-hour urine protein content", "setting": "male Fischer 344 rats [4]; [9]", "result": "1.8 ± 0.3^c mg"},
      {"measurement": "Six-hour urine protein content", "setting": "male Fischer 344 rats [4]; [10]", "result": "1.6 ± 0.2^c mg"},
      {"measurement": "Six-hour urine protein content", "setting": "male Fischer 344 rats [4]; [11]", "result": "1.9 ± 0.4^c mg"},
      {"measurement": "Six-hour urine protein content", "setting": "male Fischer 344 rats [4]; [12]", "result": "2.8 ± 0.3^c mg"},
      {"measurement": "Liver weight", "setting": "male Fischer 344 rats [5]; [9]", "result": "3.74 ± 0.23^c g/100% BW"},
      {"measurement": "Liver weight", "setting": "male Fischer 344 rats [5]; [10]", "result": "3.96 ± 0.18^c g/100% BW"},
      {"measurement": "Liver weight", "setting": "male Fischer 344 rats [5]; [11]", "result": "3.46 ± 0.09^c g/100% BW"},
      {"measurement": "Liver weight", "setting": "male Fischer 344 rats [5]; [12]", "result": "3.81 ± 0.15^c g/100% BW"},
      {"measurement": "Kidney weight", "setting": "male Fischer 344 rats [6]; [9]", "result": "0.40 ± 0.01^d g/ 100% BW"},
      {"measurement": "Kidney weight", "setting": "male Fischer 344 rats [6]; [10]", "result": "0.37 ± 0.01^d g/ 100% BW"},
      {"measurement": "Kidney weight", "setting": "male Fischer 344 rats [6]; [11]", "result": "0.41 ± 0.01^d g/ 100% BW"},
      {"measurement": "Kidney weight", "setting": "male Fischer 344 rats [6]; [12]", "result": "0.42 ± 0.01^d g/ 100% BW"},
      {"measurement": "Liver morphology", "setting": "male Fischer 344 rats [7]; all doses (0.2–1.0 mmol/kg) i.p.", "result": "no changes in hepatic morphology"},
      {"measurement": "Kidney morphology", "setting": "male Fischer 344 rats [8]", "result": "Minor swelling in the proximal tubular cells and slight dilation of collecting tubules"}
    ]},
    {"smiles": "Cc1cc(C)cc(N2C(=O)CSC2=O)c1", "note": "[DMPT, 3-(3,5-dimethylphenyl)-2,4-thiazolidinedione]", "values": [
      {"measurement": "serum alanine aminotransferase (ALT) activity", "setting": "male Fischer 344 rats [1]; 1.0 mmol/kg i.p. in corn oil, corn oil controls 36.0 ± 11.3", "result": "2071.9 ± 217.8", "unit": "Sigma-Frankel units/ml"},
      {"measurement": "Change in serum ALT levels", "setting": "male Fischer 344 rats [1]; all doses except the lowest (0.4, 0.6, 1.0 mmol/kg) i.p.", "result": "marked increases in serum ALT levels"},
      {"measurement": "Blood urea nitrogen", "setting": "male Fischer 344 rats [2]; [9]", "result": "18.1 ± 1.3^a mg/dl"},
      {"measurement": "Blood urea nitrogen", "setting": "male Fischer 344 rats [2]; [10]", "result": "22.2 ± 0.4^a mg/dl"},
      {"measurement": "Blood urea nitrogen", "setting": "male Fischer 344 rats [2]; [11]", "result": "27.5 ± 1.4*,^b mg/dl"},
      {"measurement": "Blood urea nitrogen", "setting": "male Fischer 344 rats [2]; [12]", "result": "32.8 ± 3.1*,^b mg/dl"},
      {"measurement": "Twenty-four-hour urine volume", "setting": "male Fischer 344 rats [3]; [9]", "result": "5.8 ± 1.4*,^a ml"},
      {"measurement": "Twenty-four-hour urine volume", "setting": "male Fischer 344 rats [3]; [10]", "result": "9.9 ± 2.2*,^a ml"},
      {"measurement": "Twenty-four-hour urine volume", "setting": "male Fischer 344 rats [3]; [11]", "result": "8.9 ± 1.8*,^a ml"},
      {"measurement": "Twenty-four-hour urine volume", "setting": "male Fischer 344 rats [3]; [12]", "result": "11.3 ± 2.5*,^a ml"},
      {"measurement": "Six-hour urine protein content", "setting": "male Fischer 344 rats [4]; [9]", "result": "0.8 ± 0.3^a mg"},
      {"measurement": "Six-hour urine protein content", "setting": "male Fischer 344 rats [4]; [10]", "result": "1.4 ± 0.1^a mg"},
      {"measurement": "Six-hour urine protein content", "setting": "male Fischer 344 rats [4]; [11]", "result": "1.9 ± 0.2^a mg"},
      {"measurement": "Six-hour urine protein content", "setting": "male Fischer 344 rats [4]; [12]", "result": "2.8 ± 0.4*,^b mg"},
      {"measurement": "Liver weight", "setting": "male Fischer 344 rats [5]; [9]", "result": "3.47 ± 0.20^a g/100% BW"},
      {"measurement": "Liver weight", "setting": "male Fischer 344 rats [5]; [10]", "result": "4.10 ± 0.20*,^b g/100% BW"},
      {"measurement": "Liver weight", "setting": "male Fischer 344 rats [5]; [11]", "result": "4.20 ± 0.05*,^b g/100% BW"},
      {"measurement": "Liver weight", "setting": "male Fischer 344 rats [5]; [12]", "result": "3.97 ± 0.04*,^b g/100% BW"},
      {"measurement": "Kidney weight", "setting": "male Fischer 344 rats [6]; [9]", "result": "0.38 ± 0.01^a g/ 100% BW"},
      {"measurement": "Kidney weight", "setting": "male Fischer 344 rats [6]; [10]", "result": "0.40 ± 0.02^a g/ 100% BW"},
      {"measurement": "Kidney weight", "setting": "male Fischer 344 rats [6]; [11]", "result": "0.39 ± 0.00^a g/ 100% BW"},
      {"measurement": "Kidney weight", "setting": "male Fischer 344 rats [6]; [12]", "result": "0.38 ± 0.01^a g/ 100% BW"},
      {"measurement": "Liver morphology", "setting": "male Fischer 344 rats [7]; 0.2 and 0.4 mmol/kg i.p.", "result": "necrotic lesions with infiltration of inflammatory cells, neutrophils and lymphocytes"},
      {"measurement": "Liver morphology", "setting": "male Fischer 344 rats [7]; 0.6 and 1.0 mmol/kg i.p.", "result": "necrotic lesions were widespread with many inflammatory cells seen around the lesions"},
      {"measurement": "Kidney morphology", "setting": "male Fischer 344 rats [8]", "result": "normal"}
    ]}
  ]
}
